The record followed here is PubChem BioAssay (NCI).

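Five compound concentrations were applied to cells in 96-well plates for 48 hours; endpoints were derived by simple linear interpolation of the resulting dose-response curve. GI50 marks 50% less growth. TGI denotes the concentration required for complete inhibition of growth.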

What all share (assay): NCI-60 cell line screen, 48 h
Experiment [1] has as its system IGROV1 ovarian.
For experiment [2], the system named is HOP-92 NSCLC.
For experiment [3], the system named is SN12C renal.
Experiment [4] deals with RXF 393 renal.
Experiment [5] has as its system PC-3 prostate.
Experiment [6] concerns SNB-19 CNS.
The test system of experiment [7] is MCF7 breast.
For experiment [8], the system named is NCI-H226 lung.
The subject of experiment [9] is MOLT-4 leukemia.
Experiment [10] has as its system BT-549 breast.

For the molecule `CO/N=C(\COc1ccc2c(c1)oc(=O)c1cc(OC)ccc12)c1cccc(OC)c1`, the GI50 in experiment [1], in [2], in experiment [3], in [4], in experiment [5] and in [6] was greater than 100 µM each time. Further, the GI50 in experiment [7], in experiment [8], in [9] and in experiment [10] was greater than 100 µM each time. Further, the TGI in [1], in experiment [2], in experiment [3], in [4], in experiment [5] and in experiment [6] was greater than 100 µM throughout. The TGI in [7], in experiment [8], in [9] and in experiment [10] was greater than 100 µM each time.
Regarding `COc1ccc2c(c1)C(=O)/C(=C/c1ccc([N+](=O)[O-])s1)O2`, the GI50 in [1] is 0.349 µM; in experiment [2], 0.23 µM; in experiment [3], 0.483 µM; in experiment [4], 0.284 µM; in [5], 0.283 µM; in experiment [6], 0.522 µM. Further, the GI50 in experiment [7] was 0.344 µM; in [8], 1.91 µM; in experiment [9], 0.867 µM; in experiment [10] it was 0.246 µM. Also, the TGI in experiment [1] is 1.2 µM; in experiment [2], 1.23 µM; in experiment [3] it was 2.32 µM; in experiment [4] it was 0.926 µM; in experiment [6], 2 µM; in experiment [7], greater than 100 µM. In addition, the figures for the TGI in experiment [8], in experiment [9] and in experiment [10] were 4.81 µM, greater than 33.7 µM and 0.617 µM, respectively.
`CO/N=C(\COc1ccc2c(c1)oc(=O)c1cc(OC)ccc12)c1ccc(F)cc1`: the GI50 in experiment [1] was 19.3 µM; in [2] it was 14.4 µM; in [3], 27.2 µM; in [4], 35.1 µM; in experiment [5] it was 20.9 µM; in [6], 30.4 µM. Besides, the GI50 in experiment [7] was 34.7 µM; in [8], 38.1 µM; in experiment [9], 36.6 µM; in experiment [10], 23.4 µM. Moreover, the TGI was 42.8 µM in experiment [1]; 37.4 µM in experiment [2]; greater than 100 µM in experiment [3]; greater than 100 µM in [4]; 66.5 µM in [5]; greater than 100 µM in experiment [6]. In addition, the TGI in experiment [7] was greater than 100 µM; in experiment [8] it was greater than 100 µM; in experiment [9], greater than 100 µM; in experiment [10], 55.2 µM.
For the molecule `O=c1[nH]ccc2nc(-c3ccc(CN4CCC(c5nc(-c6ccccn6)n[nH]5)CC4)cc3)c(-c3ccccc3)cc12`, the GI50 in experiment [1] was 0.0652 µM; in experiment [2] it was 0.121 µM; in experiment [3], 32.1 µM; in experiment [4] it was 0.272 µM; in [5], 0.153 µM; in [6], 17.1 µM. Further, the GI50 in experiment [7] was 0.282 µM; in experiment [8], 19 µM; in experiment [9], 0.364 µM; in [10] it was 0.711 µM. For the same molecule, the TGI in [1] is greater than 100 µM; in experiment [2], greater than 21.3 µM; in experiment [3], greater than 100 µM; in experiment [4], 4.73 µM; in [5] it was greater than 100 µM; in experiment [6], greater than 100 µM. Further, the TGI in [7] was 33.2 µM; in [8] it was greater than 100 µM; in [9], 4.67 µM; in experiment [10], 30 µM.
As to `O=c1oc2ccc(F)cc2c(=O)n1-c1ccc(Cl)cc1F`, the GI50 in experiment [1] was 0.532 µM; in experiment [2] it was 0.205 µM; in experiment [3] it was 0.495 µM; in experiment [4], 0.974 µM; in [5], 1.5 µM; in experiment [6] it was 0.541 µM. The GI50 was 1.95 µM in experiment [7], 1.22 µM in experiment [8], 2 µM in experiment [9] and 0.488 µM in [10]. Besides, the TGI in [1] was greater than 45.8 µM; in [2], 0.613 µM; in experiment [3] it was 6.92 µM; in [4], 4.48 µM; in experiment [5], 6.32 µM; in experiment [6] it was greater than 100 µM. The TGI in experiment [7] is greater than 29 µM; in [8], 4.91 µM; in experiment [9], 5.27 µM; in [10], 2.43 µM.
Turning to `COc1cc(OC)c2cc(C(=O)O)c(=O)oc2c1`, the GI50 in experiment [1] is greater than 84.9 µM; in experiment [2] it was greater than 100 µM; in [3], greater than 100 µM; in [4], greater than 100 µM; in experiment [5], greater than 100 µM; in experiment [6], greater than 100 µM. Also, the GI50 in [7], in experiment [8], in experiment [9] and in [10] was greater than 100 µM throughout. Further, the TGI in [1], in experiment [2], in [3], in experiment [4], in experiment [5] and in experiment [6] was greater than 100 µM in each case. Besides, the TGI in [7], in experiment [8], in experiment [9] and in experiment [10] was greater than 100 µM each time.
For the molecule `COc1cc(Nc2ncc3c(C)nc(-c4cccc(Oc5ccccc5)c4)n3n2)cc(OC)c1OC`, the GI50 in [1] was 2.32 µM; in experiment [2], 6.29 µM; in experiment [3], 5.32 µM; in experiment [4], 2.28 µM; in experiment [5] it was 5.1 µM; in [6], 12.1 µM. The GI50 was 7.18 µM in [7], 5.93 µM in [8], 7.46 µM in experiment [9] and 6.86 µM in experiment [10]. Further, the TGI is greater than 25 µM in experiment [1]; greater than 24.1 µM in experiment [2]; greater than 21.6 µM in experiment [3]; greater than 25 µM in experiment [4]; 24.6 µM in [5]; greater than 25 µM in [6]. Further, the TGI is greater than 24.1 µM in experiment [7], greater than 25 µM in [8], greater than 21.3 µM in experiment [9] and greater than 25 µM in experiment [10].
Consider `Cc1cc(O)ccc1O`, for which the GI50 is 16.6 µM in experiment [1]; 16.3 µM in [2]; 14.4 µM in experiment [3]; 15.5 µM in experiment [4]; 32.8 µM in experiment [5]; 41.4 µM in [6]. Besides, the GI50 in [7] was 19 µM; in experiment [8] it was 55.6 µM; in [9], 5.24 µM; in experiment [10] it was 16.3 µM. The TGI is 31 µM in [1]; 31.2 µM in experiment [2]; 27.8 µM in [3]; 29.1 µM in [4]; greater than 100 µM in experiment [5]; greater than 100 µM in experiment [6]. Further, the TGI is 69.8 µM in experiment [7], greater than 100 µM in experiment [8], 37.7 µM in [9] and greater than 100 µM in experiment [10].
As for `Cc1ccc(/C=C/C(=O)c2ccc(N)cc2)c(C)c1`, the GI50 was 1.41 µM in [1]; 1.96 µM in experiment [2]; 1.95 µM in experiment [3]; 5.56 µM in experiment [4]; 14.6 µM in experiment [5]; 14.4 µM in [6]. Also, the GI50 in experiment [7] was 8.29 µM; in experiment [8], 2.8 µM; in experiment [9], 1.28 µM; in experiment [10], 1.68 µM. Moreover, the TGI in [1] was found to be 3.08 µM; in [2] it was 4.43 µM; in experiment [3] it was 4.2 µM; in [4], 17.9 µM; in experiment [5], 28.2 µM; in experiment [6], 27.8 µM. The TGI in experiment [7] stood at 37.2 µM; in experiment [8] it was 7.25 µM; in experiment [9] it was 3.69 µM; in experiment [10], 3.4 µM.
Turning to `NC(N)=N/N=C(/c1ccccc1)c1ccc(Cl)cc1`, the GI50 in [1] is 10.6 µM; in [2], 4.09 µM; in experiment [3] it was 27.4 µM; in experiment [4], 12.3 µM; in experiment [5] it was 3.84 µM; in experiment [6] it was 87.2 µM. The GI50 in experiment [7] was 3.69 µM; in experiment [8], 29.3 µM; in experiment [9] it was 5.45 µM; in experiment [10], 50.5 µM. The TGI in experiment [1] is 82.5 µM; in [2] it was 90.5 µM; in experiment [3], greater than 100 µM; in experiment [4] it was 59.9 µM; in [5], greater than 100 µM; in experiment [6], greater than 100 µM. In addition, the TGI in [7], in experiment [8], in experiment [9] and in experiment [10] was greater than 100 µM each time.
As to `CC1CC(C)/C(=N/NC(N)=O)C(C(O)CC2CCC(=O)NC2=O)C1` (centres undefined), the GI50 in experiment [1] was 2.64 µM; in experiment [2], 2.31 µM; in [3] it was 1.99 µM; in experiment [4], 3.21 µM; in experiment [5], 4.1 µM; in experiment [6], 3.73 µM. The GI50 in experiment [7] is 3.92 µM; in [8], 4.69 µM; in experiment [9] it was 4.09 µM; in experiment [10] it was 7.08 µM. The TGI in [1] was 56.5 µM; in [2], 31.5 µM; in experiment [3], greater than 100 µM; in [4], 31.7 µM; in [5] it was greater than 100 µM; in experiment [6], greater than 100 µM. Besides, the TGI in experiment [7], in experiment [8], in [9] and in [10] was greater than 100 µM each time.
